For 24 compounds, IC50 results are on record in patent publication US20260015360A1 (MOMA Therapeutics, Inc., priority 2023, published 2026).

One may read the IC50 as the point on the concentration scale where inhibition reaches its midpoint.

One test deals with DLD1 BRCA2 (−/−) cells. Put plainly: DLD1 viability assay (CellTiter-Glo, 7 days), DLD1 BRCA2 (−/−). The class given is cell-based. To be noted: Homo sapiens, DLD-1, 168 h, read-out: Viability IC50 (μM) DLD1 BRCA2 null. The procedure:
(§1) The seeding densities are pre-determined from the growth curve kinetics performed to ensure log linear phase of cell growth for these 2 cell lines. These assay plates are then placed in the incubator at 37° C., 5% CO2, relative humidity>90% for a few hours before addition of test compounds. Compounds are dispensed using the Tecan HPD300 or Echo based on the plate map in the appropriate wells of the 384-well plates. […] After addition of the test compounds, the plates are incubated at 37° C., 5% CO2, relative humidity>90% for 7 days. CellTiter-Glo (Promega Cat. No. G7573), ATP detection reagent is prepared according to manufacturer's specifications. Cell assay plates are removed from incubator and bring to room temperature (RT) by letting them sit at bench top for at least 15 min. Using the MultiDrop liquid handler or a multichannel pipette, 35 μL/well of CTG is added and the plates are then placed shakes for 5 seconds, RT. These plates are then incubated for 30 minutes in the dark at RT before measuring luminescence using Spectramax/Enspire/Ensight/Envision/PheraSTAR.
(Cellular ATP, detected with luciferase, serves as a proxy for viable cell number.)

In the next test the test system is DLD1 WT cells. The test can be described thus: DLD1 viability assay (CellTiter-Glo, 7 days), DLD1 WT. The class given is cell-based. To be noted: Homo sapiens, DLD-1, 168 h. The procedure: as §1

The structures appear in SMILES notation.

On to `COc1cnc(Cl)cc1-c1cc(C)ncc1C(=O)Nc1nc2ncc(N3CCC4(CCCO4)CC3)nc2s1` [Example 459, N-(6-(1-oxa-8-azaspiro[4.5]decan-8-yl)thiazolo[4,5-b]pyrazin-2-yl)-2′-chloro-5′-methoxy-6-methyl-[4,4′-bipyridine]-3-carboxamide], for which the IC50 was 0.001 to 0.1 µM with DLD1 BRCA2 (−/−) cells and > 10 µM in the test on DLD1 WT cells.
The like results for `COc1cnc(Cl)cc1-c1cc(C)ncc1C(=O)Nc1nc2ncc(N3CCC(C4CC4)CC3)nc2s1` [Example 466, 2′-chloro-N-(6-(4-cyclopropylpiperidin-1-yl)thiazolo[4,5-b]pyrazin-2-yl)-5′-methoxy-6-methyl-[4,4′-bipyridine]-3-carboxamide] were, in that order, 0.001 to 0.1 µM and 7.5 to 10 µM.
`COc1cnc(Cl)cc1-c1cc(C)ncc1C(=O)Nc1nc2ncc(C3CN(CC(F)(F)F)C3)nc2s1` (single isomer, unassigned) [Example 378, 2′-chloro-5′-methoxy-6-methyl-N-(6-(1-(2,2,2-trifluoroethyl)azetidin-3-yl)thiazolo[4,5-b]pyrazin-2-yl)-[4,4′-bipyridine]-3-carboxamide]: the figures for the IC50 with DLD1 BRCA2 (−/−) cells and in the test with DLD1 WT cells were 0.001 to 0.1 µM and > 10 µM, respectively.
Taken in the same sequence, the figures for `COc1cnc(Cl)cc1-c1cc(C)ncc1C(=O)Nc1nc2ncc(N3CCC[C@H](C)C3)nc2s1` [Example 481, (S)-2′-chloro-5′-methoxy-6-methyl-N-(6-(3-methylpiperidin-1-yl)thiazolo[4,5-b]pyrazin-2-yl)-[4,4′-bipyridine]-3-carboxamide] were 0.25 to 0.5 µM and 7.5 to 10 µM.
The like results for `COc1cnc(Cl)cc1-c1cc(C)ncc1C(=O)Nc1nc2ncc(N3CCC(OC4CC4)CC3)nc2s1` [Example 462, 2′-chloro-N-(6-(4-cyclopropoxypiperidin-1-yl)thiazolo[4,5-b]pyrazin-2-yl)-5′-methoxy-6-methyl-[4,4′-bipyridine]-3-carboxamide] were, in that order, 0.001 to 0.1 µM and > 10 µM.
The like results for `COc1cnc(Cl)cc1-c1cc(C)ncc1C(=O)Nc1nc2ncc(N3CCN(CC(F)(F)F)CC3)nc2s1` [Example 471, 2′-chloro-5′-methoxy-6-methyl-N-(6-(4-(2,2,2-trifluoroethyl)piperazin-1-yl)thiazolo[4,5-b]pyrazin-2-yl)-[4,4′-bipyridine]-3-carboxamide] were, in that order, 0.001 to 0.1 µM and > 10 µM.
On to `COc1cnc(Cl)cc1-c1cc(C)ncc1C(=O)Nc1nc2ncc([C@@H]3CCO[C@@H](C)C3)nc2s1` [Example 433, 2′-chloro-5′-methoxy-6-methyl-N-(6-((2S,4R)-2-methyltetrahydro-2H-pyran-4-yl)thiazolo[4,5-b]pyrazin-2-yl)-[4,4′-bipyridine]-3-carboxamide], for which the figures for the IC50 with DLD1 BRCA2 (−/−) cells and in the test on DLD1 WT cells were 0.001 to 0.1 µM and > 10 µM, respectively.
The like results for `COc1cnc(Cl)cc1-c1cc(C)ncc1C(=O)Nc1nc2ncc(C3CCC(OC)(C(F)F)CC3)nc2s1` (stereo not drawn) [Example 383, 2′-chloro-N-(6-(4-(difluoromethyl)-4-methoxycyclohexyl)thiazolo [4,5-b]pyrazin-2-yl)-5′-methoxy-6-methyl-[4,4′-bipyridine]-3-carboxamide] were, in that order, 0.001 to 0.1 µM and > 10 µM.
Taken in the same sequence, the figures for `COc1cnc(Cl)cc1-c1cc(C)ncc1C(=O)Nc1nc2ncc(C3=CCC(O)(C(F)F)CC3)nc2s1` (stereo not drawn) [Example 396, 2′-chloro-N-(6-(4-(difluoromethyl)-4-hydroxycyclohex-1-en-1-yl)thiazolo[4,5-b]pyrazin-2-yl)-5′-methoxy-6-methyl-[4,4′-bipyridine]-3-carboxamide] were 0.001 to 0.1 µM and > 10 µM.
For `COc1cnc(Cl)cc1-c1cc(C)ncc1C(=O)Nc1nc2ncc(N3CCC(C(C)(C)O)CC3)nc2s1` [Example 480, 2′-chloro-N-(6-(4-(2-hydroxypropan-2-yl)piperidin-1-yl)thiazolo[4,5-b]pyrazin-2-yl)-5′-methoxy-6-methyl-[4,4′-bipyridine]-3-carboxamide], the IC50 in the test on DLD1 BRCA2 (−/−) cells is 0.001 to 0.1 µM; with DLD1 WT cells it was > 10 µM.
The like results for `COc1nnc(C(F)F)cc1-c1cc(C)ncc1C(=O)Nc1nc2ncc(-c3ccnc(C)c3)nc2s1` [Example 384, 4-(6-(difluoromethyl)-3-methoxypyridazin-4-yl)-6-methyl-N-(6-(2-methylpyridin-4-yl)thiazolo[4,5-b]pyrazin-2-yl)nicotinamide] were, in that order, 0.1 to 0.25 µM and > 10 µM.
Take `COc1cnc(Cl)cc1-c1cc(C)ncc1C(=O)Nc1nc2ncc(N3CCOC4CCCC43)nc2s1` (stereo not drawn) [Example 424, 2′-chloro-N-(6-(hexahydrocyclopenta[b][1, 4]oxazin-4(4aH)-yl)thiazolo[4,5-b]pyrazin-2-yl)-5′-methoxy-6-methyl-[4,4′-bipyridine]-3-carboxamide]: the results for the IC50 in the test on DLD1 BRCA2 (−/−) cells and with DLD1 WT cells were 0.001 to 0.1 µM and > 10 µM, respectively.
The like results for `COc1cnc(Cl)cc1-c1cc(C)ncc1C(=O)Nc1nc2ncc(N3CCC3)nc2s1` [Example 487, N-(6-(azetidin-1-yl)thiazolo[4,5-b]pyrazin-2-yl)-2′-chloro-5′-methoxy-6-methyl-[4,4′-bipyridine]-3-carboxamide] were, in that order, 0.001 to 0.1 µM and > 10 µM.
Taken in the same sequence, the figures for `COc1ccccc1-c1cc(C)ncc1C(=O)Nc1nc2ccc(N3CCCCC3)cc2s1` [Example 91, 4-(2-Methoxyphenyl)-6-methyl-N-(6-(piperidin-1-yl)benzo[d]thiazol-2-yl)nicotinamide] were 0.5 to 2 µM and 7.5 to 10 µM.
Taken in the same sequence, the figures for `COc1cnc(Cl)cc1-c1cc(C)ncc1C(=O)Nc1nc2ncc(C3CCC(OC(F)F)CC3)nc2s1` (stereo not drawn) [Example 398, 2′-chloro-N-(6-(4-(difluoromethoxy)cyclohexyl)thiazolo[4,5-b]pyrazin-2-yl)-5′-methoxy-6-methyl-[4,4′-bipyridine]-3-carboxamide] were 0.001 to 0.1 µM and > 10 µM.
Turning to `COc1cnc(Cl)cc1-c1cc(C)ncc1C(=O)Nc1nc2ncc(N3CCC(CC#N)CC3)nc2s1` [Example 467, 2′-chloro-N-(6-(4-(cyanomethyl)piperidin-1-yl)thiazolo[4,5-b]pyrazin-2-yl)-5′-methoxy-6-methyl-[4,4′-bipyridine]-3-carboxamide], the IC50 with DLD1 BRCA2 (−/−) cells is 0.001 to 0.1 µM; in the test on DLD1 WT cells, > 10 µM.
Taken in the same sequence, the figures for `CNC1CCN(c2cnc3nc(NC(=O)c4cnc(C)cc4-c4cc(Cl)ncc4OC)sc3n2)CC1(F)F` (stereo not drawn) [Example 455, 2′-chloro-N-(6-(3,3-difluoro-4-(methylamino)piperidin-1-yl)thiazolo[4,5-b]pyrazin-2-yl)-5′-methoxy-6-methyl-[4,4′-bipyridine]-3-carboxamide] were 0.001 to 0.1 µM and > 10 µM.
Taken in the same sequence, the figures for `COc1cnc(Cl)cc1-c1cc(C)ncc1C(=O)Nc1nc2ncc(N3C[C@H](C)OC[C@H]3C)nc2s1` [Example 422, 2′-chloro-N-(6-((2S,5R)-2,5-dimethylmorpholino)thiazolo [4,5-b]pyrazin-2-yl)-5′-methoxy-6-methyl-[4,4′-bipyridine]-3-carboxamide] were 0.001 to 0.1 µM and > 10 µM.
Taken in the same sequence, the figures for `COc1cnc(Cl)cc1-c1cc(C)ncc1C(=O)Nc1nc2ncc([C@@H]3CCOC(C)(C)C3)nc2s1` (single isomer, unassigned) [Example 382, (R or S)-2′-chloro-N-(6-(2,2-dimethyltetrahydro-2H-pyran-4-yl)thiazolo[4,5-b]pyrazin-2-yl)-5′-methoxy-6-methyl-[4,4′-bipyridine]-3-carboxamide] were 0.001 to 0.1 µM and > 10 µM.
With `COc1cnc(Cl)cc1-c1cc(C)ncc1C(=O)Nc1nc2ncc(N3CCC(C#N)CC3)nc2s1` [Example 475, 2′-chloro-N-(6-(4-cyanopiperidin-1-yl)thiazolo[4,5-b]pyrazin-2-yl)-5′-methoxy-6-methyl-[4,4′-bipyridine]-3-carboxamide], the IC50 with DLD1 BRCA2 (−/−) cells was 0.001 to 0.1 µM; with DLD1 WT cells, > 10 µM.
Taken in the same sequence, the figures for `COc1cnc(Cl)cc1-c1cc(C)ncc1C(=O)Nc1nc2ncc(N3CC[C@H](OC)C(F)(F)C3)nc2s1` (single isomer, unassigned) [Example 441, (S or R)-2′-chloro-N-(6-(3,3-difluoro-4-methoxypiperidin-1-yl)thiazolo[4,5-b]pyrazin-2-yl)-5′-methoxy-6-methyl-[4,4′-bipyridine]-3-carboxamide] were 0.001 to 0.1 µM and 0.001 to 2.5 µM.
The like results for `COc1cnc(Cl)cc1-c1cc(C)ncc1C(=O)Nc1nc2ncc(-c3cccc(C(F)F)n3)nc2s1` [Example 446, 2′-chloro-N-(6-(6-(difluoromethyl)pyridin-2-yl)thiazolo[4,5-b]pyrazin-2-yl)-5′-methoxy-6-methyl-[4,4′-bipyridine]-3-carboxamide] were, in that order, 0.001 to 0.1 µM and > 10 µM.
The like results for `COc1cnc(Cl)cc1-c1cc(C)ncc1C(=O)Nc1nc2ncc(N3CCO[C@@H](C)C3)nc2s1` [Example 490, (S)-2′-chloro-5′-methoxy-6-methyl-N-(6-(2-methylmorpholino)thiazolo[4,5-b]pyrazin-2-yl)-[4,4′-bipyridine]-3-carboxamide] were, in that order, 0.001 to 0.1 µM and > 10 µM.
Consider `COc1cnc(Cl)cc1-c1cc(C)ncc1C(=O)Nc1nc2ncc(N3C[C@H](C)OC[C@@H]3C)nc2s1` [Example 412, 2′-chloro-N-(6-((2S,5S)-2,5-dimethylmorpholino)thiazolo [4,5-b]pyrazin-2-yl)-5′-methoxy-6-methyl-[4,4′-bipyridine]-3-carboxamide], for which the IC50 is 0.001 to 0.1 µM in the test on DLD1 BRCA2 (−/−) cells and > 10 µM with DLD1 WT cells.
